Test results taken from paper PMC11864979, “First-in-class ultralong-target-residence-time p38α inhibitors as a mitosis-targeted therapy for colorectal cancer” (Nature Cancer, 2025).
Like-named read-outs stand apart in the source and are kept apart here.

Key:
Test in all cases: selectivity profiling in a panel of 340 wild-type kinases (Reaction Biology Europe)
Format in all cases: binding
340 wild-type kinases [1] = target: T1, 340 wild-type kinases (Homo sapiens, UniProt O14733)
T1 construct: purchased Reaction Biology Europe
T1 sequence (O14733 1-419): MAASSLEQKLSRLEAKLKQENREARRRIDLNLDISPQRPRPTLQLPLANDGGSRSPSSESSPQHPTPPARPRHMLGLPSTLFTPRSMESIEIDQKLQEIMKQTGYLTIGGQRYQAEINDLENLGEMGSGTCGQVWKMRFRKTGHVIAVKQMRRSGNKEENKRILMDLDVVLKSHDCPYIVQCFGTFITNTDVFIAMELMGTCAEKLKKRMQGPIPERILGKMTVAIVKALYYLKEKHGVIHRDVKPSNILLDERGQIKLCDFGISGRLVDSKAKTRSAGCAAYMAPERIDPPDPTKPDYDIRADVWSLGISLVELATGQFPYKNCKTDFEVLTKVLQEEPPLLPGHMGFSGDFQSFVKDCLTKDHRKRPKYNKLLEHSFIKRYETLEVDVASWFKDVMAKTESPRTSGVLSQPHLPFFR

340 wild-type kinases [2] = target: T2, 340 wild-type kinases (Homo sapiens, UniProt P54753)
T2 construct: purchased Reaction Biology Europe
T2 sequence (P54753 34-998): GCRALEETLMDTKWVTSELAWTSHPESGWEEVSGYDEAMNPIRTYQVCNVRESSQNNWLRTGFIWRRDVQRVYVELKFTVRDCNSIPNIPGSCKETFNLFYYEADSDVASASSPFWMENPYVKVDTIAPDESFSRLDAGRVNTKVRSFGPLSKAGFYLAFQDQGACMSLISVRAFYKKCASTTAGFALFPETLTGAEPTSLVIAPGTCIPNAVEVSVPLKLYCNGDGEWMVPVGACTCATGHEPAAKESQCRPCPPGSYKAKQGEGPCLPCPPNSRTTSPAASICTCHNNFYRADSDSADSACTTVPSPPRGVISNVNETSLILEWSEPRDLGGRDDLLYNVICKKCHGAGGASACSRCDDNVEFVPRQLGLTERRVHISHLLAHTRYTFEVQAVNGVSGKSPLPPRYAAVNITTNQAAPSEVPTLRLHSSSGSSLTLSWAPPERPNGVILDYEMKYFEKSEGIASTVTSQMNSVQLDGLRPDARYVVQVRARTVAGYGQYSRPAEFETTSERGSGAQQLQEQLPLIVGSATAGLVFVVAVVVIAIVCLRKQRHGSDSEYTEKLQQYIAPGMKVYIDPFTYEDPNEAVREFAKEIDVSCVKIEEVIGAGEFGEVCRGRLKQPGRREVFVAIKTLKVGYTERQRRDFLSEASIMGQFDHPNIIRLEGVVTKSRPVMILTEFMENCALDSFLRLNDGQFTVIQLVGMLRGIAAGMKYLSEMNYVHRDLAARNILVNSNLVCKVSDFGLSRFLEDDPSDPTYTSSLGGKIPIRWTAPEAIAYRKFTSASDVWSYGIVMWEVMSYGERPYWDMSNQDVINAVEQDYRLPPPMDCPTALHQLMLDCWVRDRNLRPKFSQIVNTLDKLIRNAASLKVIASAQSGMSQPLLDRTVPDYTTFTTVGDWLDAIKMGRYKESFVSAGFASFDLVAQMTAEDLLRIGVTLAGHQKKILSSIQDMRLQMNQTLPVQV

340 wild-type kinases [3] = target: T3, 340 wild-type kinases (Homo sapiens, UniProt Q32MK0)
T3 construct: purchased Reaction Biology Europe
T3 sequence (Q32MK0 1-819): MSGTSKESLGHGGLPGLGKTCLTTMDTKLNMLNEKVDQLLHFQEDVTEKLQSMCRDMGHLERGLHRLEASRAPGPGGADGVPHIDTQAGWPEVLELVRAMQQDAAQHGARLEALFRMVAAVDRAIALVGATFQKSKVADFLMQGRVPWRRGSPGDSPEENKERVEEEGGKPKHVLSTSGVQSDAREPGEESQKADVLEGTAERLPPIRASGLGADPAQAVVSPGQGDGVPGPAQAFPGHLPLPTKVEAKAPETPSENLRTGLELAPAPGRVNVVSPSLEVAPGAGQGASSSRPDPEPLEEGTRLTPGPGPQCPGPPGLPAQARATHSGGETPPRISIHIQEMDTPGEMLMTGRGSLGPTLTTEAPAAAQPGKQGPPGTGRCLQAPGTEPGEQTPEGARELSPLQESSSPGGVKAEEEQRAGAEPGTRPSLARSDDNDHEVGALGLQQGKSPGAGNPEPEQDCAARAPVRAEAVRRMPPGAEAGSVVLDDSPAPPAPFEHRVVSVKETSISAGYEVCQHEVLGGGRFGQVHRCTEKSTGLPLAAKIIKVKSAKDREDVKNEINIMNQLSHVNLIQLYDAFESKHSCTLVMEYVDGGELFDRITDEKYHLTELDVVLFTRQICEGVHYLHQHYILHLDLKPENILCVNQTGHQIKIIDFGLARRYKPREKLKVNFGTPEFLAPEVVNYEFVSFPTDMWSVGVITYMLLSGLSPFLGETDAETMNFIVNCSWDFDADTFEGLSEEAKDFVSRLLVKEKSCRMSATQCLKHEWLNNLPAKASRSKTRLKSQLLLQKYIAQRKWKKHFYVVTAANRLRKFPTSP

340 wild-type kinases [4] = target: T4, 340 wild-type kinases (Homo sapiens, UniProt Q5TCX8)
T4 construct: purchased Reaction Biology Europe
T4 sequence (Q5TCX8 whole entry): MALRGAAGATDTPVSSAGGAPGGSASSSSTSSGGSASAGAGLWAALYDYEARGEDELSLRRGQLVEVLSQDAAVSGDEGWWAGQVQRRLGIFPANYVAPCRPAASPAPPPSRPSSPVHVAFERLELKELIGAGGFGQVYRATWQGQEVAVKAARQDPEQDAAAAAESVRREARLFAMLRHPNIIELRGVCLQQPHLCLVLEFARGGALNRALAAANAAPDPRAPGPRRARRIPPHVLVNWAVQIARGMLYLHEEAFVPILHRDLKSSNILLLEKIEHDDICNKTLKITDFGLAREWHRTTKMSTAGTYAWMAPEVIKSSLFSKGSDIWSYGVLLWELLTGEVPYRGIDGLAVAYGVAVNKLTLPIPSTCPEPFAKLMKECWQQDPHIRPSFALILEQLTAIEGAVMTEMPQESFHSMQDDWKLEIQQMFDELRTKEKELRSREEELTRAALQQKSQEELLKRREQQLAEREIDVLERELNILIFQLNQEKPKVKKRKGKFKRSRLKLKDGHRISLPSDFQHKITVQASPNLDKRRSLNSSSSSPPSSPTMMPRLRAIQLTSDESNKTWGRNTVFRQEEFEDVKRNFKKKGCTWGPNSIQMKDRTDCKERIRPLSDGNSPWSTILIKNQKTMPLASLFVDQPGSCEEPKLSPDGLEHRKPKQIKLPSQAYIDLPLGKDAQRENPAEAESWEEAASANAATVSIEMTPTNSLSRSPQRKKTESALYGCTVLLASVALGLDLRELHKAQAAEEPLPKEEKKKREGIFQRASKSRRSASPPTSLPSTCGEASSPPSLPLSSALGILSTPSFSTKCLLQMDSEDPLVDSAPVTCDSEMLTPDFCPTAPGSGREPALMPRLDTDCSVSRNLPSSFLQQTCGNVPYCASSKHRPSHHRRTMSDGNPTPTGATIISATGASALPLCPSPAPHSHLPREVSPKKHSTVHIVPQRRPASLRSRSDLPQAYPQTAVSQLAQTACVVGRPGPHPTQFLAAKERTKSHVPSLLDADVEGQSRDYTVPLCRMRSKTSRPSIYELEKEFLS

In the case of `CNC(=O)c1ccc2c(c1)C(=O)c1ccc(Nc3ccc(F)c(NC(=O)C4CC4)c3)cc1CC2` [Compound 2015], the remaining activity at 0.2 µM (340 wild-type kinases [1]; 0.2 µM 2015, read-out: MKK7 residual activity) is reported as 102%, the remaining activity at 1 µM (340 wild-type kinases [1]; 1 µM 2015, read-out: MKK7 residual activity) is reported as 117% and the remaining activity at 0.2 µM (340 wild-type kinases [1]; MKK7, 0.2 µM, read-out: residual activity) is reported as 102%. For the same molecule, the remaining activity at 1 µM (340 wild-type kinases [1]; MKK7, 1 µM, read-out: residual activity) was 117%, the remaining activity at 0.2 µM (340 wild-type kinases [2]; 0.2 µM 2015, read-out: EPHB3 residual activity) was 97.2% and the remaining activity at 1 µM (340 wild-type kinases [2]; 1 µM 2015, read-out: EPHB3 residual activity) was 96.8%. The remaining activity at 0.2 µM (340 wild-type kinases [2]; EPHB3, 0.2 µM, read-out: residual activity) was 97.2%, the remaining activity at 1 µM (340 wild-type kinases [2]; EPHB3, 1 µM, read-out: residual activity) was 96.8% and the remaining activity at 0.2 µM (340 wild-type kinases [3]; 0.2 µM 2015, read-out: MYLK3 residual activity) was 106%. It also gave a remaining activity at 1 µM (340 wild-type kinases [3]; 1 µM 2015, read-out: MYLK3 residual activity) of 93.5%, a remaining activity at 0.2 µM (340 wild-type kinases [3]; MYLK3, 0.2 µM, read-out: residual activity) of 106% and a remaining activity at 1 µM (340 wild-type kinases [3]; MYLK3, 1 µM, read-out: residual activity) of 93.5%. The remaining activity at 0.2 µM (340 wild-type kinases [4]; 0.2 µM 2015, read-out: MLK4 residual activity) was 96.4%, the remaining activity at 1 µM (340 wild-type kinases [4]; 1 µM 2015, read-out: MLK4 residual activity) was 87.1% and the remaining activity at 0.2 µM (340 wild-type kinases [4]; MLK4, 0.2 µM, read-out: residual activity) was 96.4%. The remaining activity at 1 µM (340 wild-type kinases [4]; MLK4, 1 µM, read-out: residual activity) was 87.1%.
